# Values of other authors, collected in patent US20100209350A1, “Biomarkers for Adipose Tissue Activity” (priority 2008, published 2010).
# Test system: adiponectin
# Conditions: patient responding to the therapy; sample such as blood; general statement, no study described
smiles,measurement,value
CN(C)C(=N)N=C(N)N [metformin],increase of adiponectin level from a reference value,about 20%
